# Reference: US6355799B1, “Substituted benzene compounds, process for their preparation, and herbicidal and defoliant compositions containing them” (ISK Americas Incorporated, priority 1997, dated 2002)
# Columns and labels:
# Type in all cases: in vivo
# [1] = test system: redroot pigweed (Amaranthus retroflexus, AMARE); experiment: Pre-emerge test, greenhouse herbicide activity screening; settings: pre-emerge, phytotoxicity rating 0-100 at 14 days after application
# Summary of the method: (§1)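 Compounds in acetone were track-sprayed at 187 l/ha, 15–1000 g ai/ha, onto sandy loam pots. Pre-emerge seeds were sown one day before spraying, with surface watering afterwards. Post-emerge plants were at the 2–3 leaf stage and sprayed with 0.25% v/v non-ionic surfactant. Injury was rated 0–100 at 14 days.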
# [2] = test system: barnyardgrass (Echinochloa crus-galli, ECHCG); experiment: as above; settings: pre-emerge, phytotoxicity rating 0-100 at 14 days after application
# Summary of the method: (§2)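 Rating: 0–100 visual injury, 14 DAA. Application: acetone, 187 l/ha, 15–1000 g ai/ha, flat-fan track sprayer with nozzle 40–45 cm above soil or canopy. Post-emerge runs used 0.25% v/v surfactant on 2–3 leaf plants.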
# [3] = test system: green foxtail (Setaria viridis, SETVI); experiment: as above; settings: pre-emerge, phytotoxicity rating 0-100 at 14 days after application
# Summary of the method: as §2
# [4] = test system: ivyleaf morningglory (Ipomoea hederacea, IPOHE); experiment: as above; settings: pre-emerge, phytotoxicity rating 0-100 at 14 days after application
# Summary of the method: as §2
# [5] = test system: johnsongrass (Sorghum halepense, SORHA); experiment: as above; settings: pre-emerge, phytotoxicity rating 0-100 at 14 days after application
# Summary of the method: as §2
# [6] = test system: lambsquarters (Chenopodium album, CHEAL); experiment: as above; settings: pre-emerge, phytotoxicity rating 0-100 at 14 days after application
# Summary of the method: as §2
# [7] = test system: large crabgrass (Digitaria sanguinalis, DIGSA); experiment: as above; settings: pre-emerge, phytotoxicity rating 0-100 at 14 days after application
# Summary of the method: as §2
# [8] = test system: sicklepod (Cassia obtusifolia, CASOB); experiment: as above; settings: pre-emerge, phytotoxicity rating 0-100 at 14 days after application
# Summary of the method: as §2
# [9] = test system: velvetleaf (Abutilon theophrasti, ABUTH); experiment: as above; settings: pre-emerge, phytotoxicity rating 0-100 at 14 days after application
# Summary of the method: as §2
# [10] = test system: field corn (Zea mays L., var. Dekalb 535, CORN); experiment: Pre-emerge test, crop safety; settings: crop damage, pre-emerge, phytotoxicity rating 0-100 at 14 days after application
# Summary of the method: as §1
# [11] = test system: upland rice (Oryza sp., var. Tebonnet, RICE); experiment: Pre-emerge test, crop safety; settings: crop damage, pre-emerge, phytotoxicity rating 0-100 at 14 days after application
# Summary of the method: as §1
# [12] = test system: barnyardgrass (Echinochloa crus-galli, ECHCG); experiment: Post-emerge test, greenhouse herbicide activity screening; settings: post-emerge, phytotoxicity rating 0-100 at 14 days after application
# Summary of the method: (§3)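 Each test used a mechanized track sprayer delivering 187 l/ha of acetone solution at 15–1000 g ai/ha. Post-emerge foliage at 2–3 leaves was treated with added 0.25% v/v non-ionic surfactant and bottom-watered only. Injury was assessed on day 14, where 100 means total kill.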
# [13] = test system: green foxtail (Setaria viridis, SETVI); experiment: as above; settings: post-emerge, phytotoxicity rating 0-100 at 14 days after application
# Summary of the method: as §3
# [14] = test system: ivyleaf morningglory (Ipomoea hederacea, IPOHE); experiment: as above; settings: post-emerge, phytotoxicity rating 0-100 at 14 days after application
# Summary of the method: as §3
# [15] = test system: johnsongrass (Sorghum halepense, SORHA); experiment: as above; settings: post-emerge, phytotoxicity rating 0-100 at 14 days after application
# Summary of the method: as §3
# [16] = test system: lambsquarters (Chenopodium album, CHEAL); experiment: as above; settings: post-emerge, phytotoxicity rating 0-100 at 14 days after application
# Summary of the method: as §3
# [17] = test system: large crabgrass (Digitaria sanguinalis, DIGSA); experiment: as above; settings: post-emerge, phytotoxicity rating 0-100 at 14 days after application
# Summary of the method: as §3
# [18] = test system: redroot pigweed (Amaranthus retroflexus, AMARE); experiment: as above; settings: post-emerge, phytotoxicity rating 0-100 at 14 days after application
# Summary of the method: as §3
# [19] = test system: sicklepod (Cassia obtusifolia, CASOB); experiment: as above; settings: post-emerge, phytotoxicity rating 0-100 at 14 days after application
# Summary of the method: as §3
# [20] = test system: velvetleaf (Abutilon theophrasti, ABUTH); experiment: as above; settings: post-emerge, phytotoxicity rating 0-100 at 14 days after application
# Summary of the method: as §3
# [21] = test system: field corn (Zea mays L., var. Dekalb 535, CORN); experiment: Post-emerge test, crop safety; settings: post-emerge, crop damage rating 0-100 at 14 days after application
# Summary of the method: (§4)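 Plants grown in 10 cm pots of sandy loam mix received acetone-dissolved compounds through a moving flat-fan nozzle. Doses ranged from 15 to 1000 g ai/ha. Pre-emerge pots were seeded one day earlier, post-emerge pots 8–21 days earlier. Fourteen days on, each pot was graded 0–100 for damage.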
# [22] = test system: upland rice (Oryza sp., var. Tebonnet, RICE); experiment: Post-emerge test, crop safety; settings: post-emerge, crop damage rating 0-100 at 14 days after application
# Summary of the method: as §4
smiles,measurement,setting,value
"C#CCOc1c(Cl)cc(F)c(N2C(=O)C3=C(CCCC3)C2=O)c1N [Compound 8-3, N-(2-amino-4-chloro-6-fluoro-3-propargyloxyphenyl)tetrahydrophthalimide]",Pre-emerge Herbicidal Activity AMARE,[1]; rate 63 g ai/ha,99
same,Pre-emerge Herbicidal Activity AMARE,[1]; rate 250 g ai/ha,100
same,Pre-emerge Herbicidal Activity ECHCG,[2]; rate 63 g ai/ha,0
same,Pre-emerge Herbicidal Activity ECHCG,[2]; rate 250 g ai/ha,10
same,Pre-emerge Herbicidal Activity SETVI,[3]; rate 63 g ai/ha,95
same,Pre-emerge Herbicidal Activity SETVI,[3]; rate 250 g ai/ha,98
same,Pre-emerge Herbicidal Activity IPOHE,[4]; rate 63 g ai/ha,30
same,Pre-emerge Herbicidal Activity IPOHE,[4]; rate 250 g ai/ha,10
same,Pre-emerge Herbicidal Activity SORHA,[5]; rate 63 g ai/ha,20
same,Pre-emerge Herbicidal Activity SORHA,[5]; rate 250 g ai/ha,30
same,Pre-emerge Herbicidal Activity CHEAL,[6]; rate 63 g ai/ha,99
same,Pre-emerge Herbicidal Activity CHEAL,[6]; rate 250 g ai/ha,100
same,Pre-emerge Herbicidal Activity DIGSA,[7]; rate 63 g ai/ha,30
same,Pre-emerge Herbicidal Activity DIGSA,[7]; rate 250 g ai/ha,60
same,Pre-emerge Herbicidal Activity CASOB,[8]; rate 63 g ai/ha,30
same,Pre-emerge Herbicidal Activity CASOB,[8]; rate 250 g ai/ha,50
same,Pre-emerge Herbicidal Activity ABUTH,[9]; rate 63 g ai/ha,98
same,Pre-emerge Herbicidal Activity ABUTH,[9]; rate 250 g ai/ha,100
same,Pre-emerge Herbicidal Activity CORN,[10]; rate 63 g ai/ha,10
same,Pre-emerge Herbicidal Activity CORN,[10]; rate 250 g ai/ha,0
same,Pre-emerge Herbicidal Activity RICE,[11]; rate 63 g ai/ha,0
same,Pre-emerge Herbicidal Activity RICE,[11]; rate 250 g ai/ha,0
same,Post-emerge Herbicidal Activity ECHCG,[12]; 63 g ai/ha,0
same,Post-emerge Herbicidal Activity ECHCG,[12]; 250 g ai/ha,0
same,Post-emerge Herbicidal Activity SETVI,[13]; 63 g ai/ha,0
same,Post-emerge Herbicidal Activity SETVI,[13]; 250 g ai/ha,70
same,Post-emerge Herbicidal Activity IPOHE,[14]; 63 g ai/ha,40
same,Post-emerge Herbicidal Activity IPOHE,[14]; 250 g ai/ha,60
same,Post-emerge Herbicidal Activity SORHA,[15]; 63 g ai/ha,0
same,Post-emerge Herbicidal Activity SORHA,[15]; 250 g ai/ha,20
same,Post-emerge Herbicidal Activity CHEAL,[16]; 63 g ai/ha,70
same,Post-emerge Herbicidal Activity CHEAL,[16]; 250 g ai/ha,90
same,Post-emerge Herbicidal Activity DIGSA,[17]; 63 g ai/ha,0
same,Post-emerge Herbicidal Activity DIGSA,[17]; 250 g ai/ha,0
same,Post-emerge Herbicidal Activity AMARE,[18]; 63 g ai/ha,90
same,Post-emerge Herbicidal Activity AMARE,[18]; 250 g ai/ha,100
same,Post-emerge Herbicidal Activity CASOB,[19]; 63 g ai/ha,0
same,Post-emerge Herbicidal Activity CASOB,[19]; 250 g ai/ha,50
same,Post-emerge Herbicidal Activity ABUTH,[20]; 63 g ai/ha,90
same,Post-emerge Herbicidal Activity ABUTH,[20]; 250 g ai/ha,100
same,Post-emerge Herbicidal Activity CORN,[21]; 63 g ai/ha,0
same,Post-emerge Herbicidal Activity CORN,[21]; 250 g ai/ha,0
same,Post-emerge Herbicidal Activity RICE,[22]; 63 g ai/ha,20
same,Post-emerge Herbicidal Activity RICE,[22]; 250 g ai/ha,80
"Nc1c(OC2CCCC2)c(Cl)cc(F)c1N1C(=O)C2=C(CCCC2)C1=O [Compound 8-5, N-(2-amino-4-chloro-3-cyclopentyloxy-6-fluorophenyl)tetrahydrophthalimide]",Pre-emerge Herbicidal Activity AMARE,[1]; rate 63 g ai/ha,40
same,Pre-emerge Herbicidal Activity AMARE,[1]; rate 250 g ai/ha,95
same,Pre-emerge Herbicidal Activity ECHCG,[2]; rate 63 g ai/ha,0
same,Pre-emerge Herbicidal Activity ECHCG,[2]; rate 250 g ai/ha,0
same,Pre-emerge Herbicidal Activity SETVI,[3]; rate 63 g ai/ha,70
same,Pre-emerge Herbicidal Activity SETVI,[3]; rate 250 g ai/ha,90
same,Pre-emerge Herbicidal Activity IPOHE,[4]; rate 63 g ai/ha,0
same,Pre-emerge Herbicidal Activity IPOHE,[4]; rate 250 g ai/ha,0
same,Pre-emerge Herbicidal Activity SORHA,[5]; rate 63 g ai/ha,0
same,Pre-emerge Herbicidal Activity SORHA,[5]; rate 250 g ai/ha,20
same,Pre-emerge Herbicidal Activity CHEAL,[6]; rate 63 g ai/ha,0
same,Pre-emerge Herbicidal Activity CHEAL,[6]; rate 250 g ai/ha,80
same,Pre-emerge Herbicidal Activity DIGSA,[7]; rate 63 g ai/ha,0
same,Pre-emerge Herbicidal Activity DIGSA,[7]; rate 250 g ai/ha,0
same,Pre-emerge Herbicidal Activity CASOB,[8]; rate 63 g ai/ha,0
same,Pre-emerge Herbicidal Activity CASOB,[8]; rate 250 g ai/ha,40
same,Pre-emerge Herbicidal Activity ABUTH,[9]; rate 63 g ai/ha,0
same,Pre-emerge Herbicidal Activity ABUTH,[9]; rate 250 g ai/ha,70
same,Pre-emerge Herbicidal Activity CORN,[10]; rate 63 g ai/ha,0
same,Pre-emerge Herbicidal Activity CORN,[10]; rate 250 g ai/ha,0
same,Pre-emerge Herbicidal Activity RICE,[11]; rate 63 g ai/ha,0
same,Pre-emerge Herbicidal Activity RICE,[11]; rate 250 g ai/ha,0
same,Post-emerge Herbicidal Activity ECHCG,[12]; 63 g ai/ha,0
same,Post-emerge Herbicidal Activity ECHCG,[12]; 250 g ai/ha,0
same,Post-emerge Herbicidal Activity SETVI,[13]; 63 g ai/ha,0
same,Post-emerge Herbicidal Activity SETVI,[13]; 250 g ai/ha,20
same,Post-emerge Herbicidal Activity IPOHE,[14]; 63 g ai/ha,0
same,Post-emerge Herbicidal Activity IPOHE,[14]; 250 g ai/ha,40
same,Post-emerge Herbicidal Activity SORHA,[15]; 63 g ai/ha,0
same,Post-emerge Herbicidal Activity SORHA,[15]; 250 g ai/ha,0
same,Post-emerge Herbicidal Activity CHEAL,[16]; 63 g ai/ha,70
same,Post-emerge Herbicidal Activity CHEAL,[16]; 250 g ai/ha,70
same,Post-emerge Herbicidal Activity DIGSA,[17]; 63 g ai/ha,0
same,Post-emerge Herbicidal Activity DIGSA,[17]; 250 g ai/ha,0
same,Post-emerge Herbicidal Activity AMARE,[18]; 63 g ai/ha,40
same,Post-emerge Herbicidal Activity AMARE,[18]; 250 g ai/ha,100
same,Post-emerge Herbicidal Activity CASOB,[19]; 63 g ai/ha,0
same,Post-emerge Herbicidal Activity CASOB,[19]; 250 g ai/ha,10
same,Post-emerge Herbicidal Activity ABUTH,[20]; 63 g ai/ha,70
same,Post-emerge Herbicidal Activity ABUTH,[20]; 250 g ai/ha,90
same,Post-emerge Herbicidal Activity CORN,[21]; 63 g ai/ha,0
same,Post-emerge Herbicidal Activity CORN,[21]; 250 g ai/ha,0
same,Post-emerge Herbicidal Activity RICE,[22]; 63 g ai/ha,40
same,Post-emerge Herbicidal Activity RICE,[22]; 250 g ai/ha,50
